According to patent US20240218022A1, “ANTI-VISTA MACROCYCLIC PEPTIDES AND COMPOSITIONS” (BRISTOL-MYERS SQUIBB COMPANY, priority 2022, published 2024):
Where two headings read alike, the source gives them in different places. Starred links: 1 amine or outer side, 2 acyl side, 3 side chain; linkers in the order of their positions; H or OH if unused. Positions of bridges follow the written chain, without caps; N, C: chain ends. Non-standard residues stand in square brackets, D forms with d. Residues, ends and D or L forms follow the SMILES beside them. ξ: configuration not given here. Phe(4-CF3) = N[C@@H](Cc1ccc(C(F)(F)F)cc1)C(=O)O; Phe(4-COOH) = N[C@@H](Cc1ccc(C(=O)O)cc1)C(=O)O; Phe(3-Me) = Cc1cccc(C[C@H](N)C(=O)O)c1; γGlu = O=C(O)[C@H](CCC(=O)[*:2])N[*:1]; 2Nal = N[C@@H](Cc1ccc2ccccc2c1)C(=O)O; βAsp = O=C(O)[C@H](CC(=O)[*:2])N[*:1]; Ala(cPr) = N[C@@H](CC1CC1)C(=O)O; NMeL = CN[C@@H](CC(C)C)C(=O)O; Ahp(2) = CCCCC[C@H](N)C(=O)O; NMeNle = CCCC[C@H](NC)C(=O)O; Tle = CC(C)(C)[C@H](N)C(=O)O; NHexGly = CCCCCCNCC(=O)O; Nle = CCCC[C@H](N)C(=O)O; Orn = NCCC[C@H](N)C(=O)O; Aun = NCCCCCCCCCCC(=O)O; ξD = NC(CC(=O)O)C(=O)O; AEEA = NCCOCCOCC(=O)O; ξP = O=C(O)C1CCCN1

Target: T1, mouse VISTA (mVISTA) (Mus musculus, UniProt Q9D659)
T1 construct: expressed in transfected cells; host or cells: Human embryonic kidney 293T cells
T1 sequence (Q9D659 33-308): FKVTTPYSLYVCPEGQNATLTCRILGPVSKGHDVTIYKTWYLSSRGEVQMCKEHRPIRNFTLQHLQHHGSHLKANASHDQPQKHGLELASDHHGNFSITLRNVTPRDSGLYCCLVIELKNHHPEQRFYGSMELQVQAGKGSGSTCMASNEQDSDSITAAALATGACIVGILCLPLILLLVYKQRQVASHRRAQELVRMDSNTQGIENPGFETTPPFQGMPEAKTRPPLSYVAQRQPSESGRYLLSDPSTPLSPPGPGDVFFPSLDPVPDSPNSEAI
Assay: Cell-Based Binding High-Content Assay For mVISTA (HC CBA mVISTA)
Procedure, shortened: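 293T cells expressing mouse VISTA, with compounds added either after seeding ("no wash") or before seeding and then washed out after 1 h. Biotinylated peptide 2 nM for 30 min at room temperature, then detection with Alexa 647–streptavidin. After fixation with Hoechst stain, plates were high-content imaged; IC50 from four-parameter logistic fit.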

[1] = 293T cells expressing mouse VISTA, competition with biotinylated peptide (2 nM), read-out: HC CBA mVISTA IC50
[2] = cell-based binding high-content assay, mVISTA, the 15th table, read-out: HC CBA mVISTA IC50
[3] = cell-based binding high-content assay, mVISTA, read-out: HC CBA miPr ISTA IC50

## CCCCCCN1CC(=O)N[C@@H](Cc2ccc(O)cc2)C(=O)N[C@@H](CCCC)C(=O)NCC(=O)N[C@@H](CCCNC(=N)N)C(=O)N[C@@H](CC(C)C)C(=O)N[C@@H](CCCCC)C(=O)N2CCC[C@H]2C(=O)N[C@@H](C(C)C)C(=O)N[C@@H](CC(N)=O)C(=O)N[C@H](C(=O)NCC(=O)O)CSCC(=O)N[C@@H](Cc2ccccc2)C(=O)N[C@@H](Cc2ccc(O)cc2)C(=O)N[C@@H](CC(=O)O)C1=O [Example 1028] ({CH2CO}-FYD[NHexGly]Y[Nle]GRL[Ahp(2)]PVNCG-OH; thioether N-14)
[1]
  IC50: 5.2 nM

## CCCCCCN1CC(=O)N[C@@H](Cc2ccc(O)cc2)C(=O)N[C@@H](CCCC)C(=O)N[C@@H](CC(N)=O)C(=O)N[C@@H](CCCNC(=N)N)C(=O)N(C)[C@@H](CCCC)C(=O)N[C@@H](CCCCC)C(=O)N2CCC[C@H]2C(=O)N[C@@H](C(C)C)C(=O)N[C@@H](CC(=O)O)C(=O)N[C@H](C(=O)N[C@@H](CO)C(=O)O)CSCC(=O)N[C@@H](Cc2ccc3ccccc3c2)C(=O)N[C@@H](Cc2c[nH]c3ccccc23)C(=O)N[C@@H](CC(=O)O)C1=O [compound 1255] ({CH2CO}-[2Nal]WD[NHexGly]Y[Nle]NR[NMeNle][Ahp(2)]PVDCS-OH; thioether N-14)
[2]
  IC50: 13.1 nM

## CCCCCCN1CC(=O)N[C@@H](Cc2ccc(O)cc2)C(=O)N[C@@H](CCCCC)C(=O)N[C@@H](CC(N)=O)C(=O)N[C@@H](CCCNC(=N)N)C(=O)N(C)[C@@H](CCCC)C(=O)N[C@@H](CCCCC)C(=O)N2CCC[C@H]2C(=O)N[C@@H](C(C)C)C(=O)N[C@@H](CO)C(=O)N[C@H](C(=O)NCC(=O)O)CSCC(=O)N[C@@H](Cc2ccc3ccccc3c2)C(=O)N[C@@H](Cc2c[nH]c3ccccc23)C(=O)N[C@@H](CC(=O)O)C1=O [compound 1252] ({CH2CO}-[2Nal]WD[NHexGly]Y[Ahp(2)]NR[NMeNle][Ahp(2)]PVSCG-OH; thioether N-14)
[2]
  IC50: 6.4 nM

## CCCCCCN1CC(=O)N[C@@H](Cc2ccc(O)cc2)C(=O)N[C@@H](CC(C)C)C(=O)N[C@@H](CC(N)=O)C(=O)N[C@@H](CCCNC(=N)N)C(=O)N[C@@H](CC(C)C)C(=O)N[C@@H](CCCCC)C(=O)N2CCC[C@H]2C(=O)N[C@@H](C(C)C)C(=O)N[C@@H](C(C)C)C(=O)N[C@H](C(=O)N[C@@H](CO)C(=O)O)CSCC(=O)N[C@@H](Cc2cccc(C)c2)C(=O)N[C@@H](Cc2ccc(O)cc2)C(=O)N[C@@H](CC(=O)O)C1=O [compound 1434] ({CH2CO}-[Phe(3-Me)]YD[NHexGly]YLNRL[Ahp(2)]PVVCS-OH; thioether N-14)
The 19th table, scaffold drawing 22, read-out: HC CBA mVISTA IC50
  IC50: 20.4 nM

## CCCCCCN1CC(=O)N[C@@H](Cc2ccc(O)cc2)C(=O)N[C@@H](CCCC)C(=O)N[C@@H](CC(N)=O)C(=O)N[C@@H](CCCNC(=N)N)C(=O)N(C)[C@@H](CCCC)C(=O)N[C@@H](CCCCC)C(=O)N2CCCC2C(=O)N[C@@H](C(C)C)C(=O)N[C@@H](CC(=O)O)C(=O)N[C@H](C(=O)NCC(=O)N[C@@H](CCC(=O)NCCOCCOCC(=O)N[C@@H](CC(=O)O)C(=O)NCCOCCOCC(=O)NCCCCCCCCCCC(=O)O)C(=O)O)CSCC(=O)N[C@@H](Cc2ccc3ccccc3c2)C(=O)N[C@@H](Cc2c[nH]c3ccccc23)C(=O)N[C@@H](CC(=O)O)C1=O (stereo partly shown) [compound 2125] ({CH2CO}-[2Nal]WD[NHexGly]Y[Nle]NR[NMeNle][Ahp(2)][ξP]VDCG[γGlu][AEEA]D[AEEA][Aun]-OH; thioether N-14)
read-out: HC CBA mVISTA IC50
  IC50: 19.6 nM

## CCCCCCN1CC(=O)N[C@@H](Cc2ccc(O)cc2)C(=O)N[C@@H](CC(C)C)C(=O)N[C@@H](CC(N)=O)C(=O)N[C@@H](CCCNC(=N)N)C(=O)N[C@@H](CC(C)C)C(=O)N[C@@H](CCCCC)C(=O)N2CCC[C@H]2C(=O)N[C@@H](C(C)C)C(=O)N[C@@H](C(C)C)C(=O)N[C@H](C(=O)NCC(=O)O)CSCC(=O)N[C@@H](Cc2ccc(C(F)(F)F)cc2)C(=O)N[C@@H](Cc2c[nH]c3ccccc23)C(=O)N[C@@H](CC(=O)O)C1=O [compound 1460] ({CH2CO}-[Phe(4-CF3)]WD[NHexGly]YLNRL[Ahp(2)]PVVCG-OH; thioether N-14)
The 20th table, scaffold drawing 23, read-out: HC CBA mVISTA IC50
  IC50: 8.7 nM

## CCCCCCN1CC(=O)N[C@@H](Cc2ccc(O)cc2)C(=O)N[C@@H](CC(C)C)C(=O)N[C@@H](CC(N)=O)C(=O)N[C@@H](CCCN)C(=O)N(C)[C@@H](CCCC)C(=O)N[C@@H](CCCCC)C(=O)N2CCC[C@H]2C(=O)N[C@@H](C(C)(C)C)C(=O)N[C@@H](CO)C(=O)N[C@H](C(=O)N[C@@H](CC(=O)NCCOCCOCC(=O)N[C@@H](CC(=O)O)C(=O)NCCOCCOCC(=O)NCCCCCCCCCCC(=O)O)C(=O)O)CSCC(=O)N[C@@H](Cc2ccccc2)C(=O)N[C@@H](Cc2cccc(C)c2)C(=O)N[C@@H](CC(=O)O)C1=O [compound 2077] ({CH2CO}-F[Phe(3-Me)]D[NHexGly]YLN[Orn][NMeNle][Ahp(2)]P[Tle]SC[βAsp][AEEA]D[AEEA][Aun]-OH; thioether N-14)
cell-based binding high-content assay, mVISTA, read-out: HC CBA miPrISTA IC50
  IC50: 33.5 nM

## CCCCCCN1CC(=O)N[C@@H](Cc2ccc(O)cc2)C(=O)N[C@@H](CC2CC2)C(=O)N[C@@H](CC(N)=O)C(=O)N[C@@H](CCCN)C(=O)N(C)[C@@H](CCCC)C(=O)N[C@@H](CCCCC)C(=O)N2CCC[C@H]2C(=O)N[C@@H](C(C)(C)C)C(=O)N[C@@H](CO)C(=O)N[C@H](C(=O)N[C@@H](CC(=O)NCCOCCOCC(=O)N[C@@H](CC(=O)O)C(=O)NCCOCCOCC(=O)NCCCCCCCCCCC(=O)O)C(=O)O)CSCC(=O)N[C@@H](Cc2ccccc2)C(=O)N[C@@H](Cc2ccc(O)cc2)C(=O)N[C@@H](CC(=O)O)C1=O [compound 2062] ({CH2CO}-FYD[NHexGly]Y[Ala(cPr)]N[Orn][NMeNle][Ahp(2)]P[Tle]SC[βAsp][AEEA]D[AEEA][Aun]-OH; thioether N-14)
[3]
  IC50: 49.2 nM

## CCCCCCN1CC(=O)N[C@@H](Cc2ccc(O)cc2)C(=O)N[C@@H](CC(C)C)C(=O)N[C@@H](CC(N)=O)C(=O)N[C@@H](CCCNC(=N)N)C(=O)N[C@@H](CC(C)C)C(=O)N[C@@H](CCCCC)C(=O)N2CCC[C@H]2C(=O)N[C@@H](C(C)C)C(=O)N[C@@H](CO)C(=O)N[C@H](C(=O)NCC(N)=O)CSCC(=O)N[C@@H](Cc2ccccc2)C(=O)N[C@@H](Cc2ccc(O)cc2)C(=O)N[C@@H](CC(=O)O)C1=O [Example 1040] ({CH2CO}-FYD[NHexGly]YLNRL[Ahp(2)]PVSCG-NH2; thioether N-14)
[1]
  IC50: 5.4 nM

## CCCCCCN1CC(=O)N[C@@H](Cc2ccc(O)cc2)C(=O)N[C@@H](C(C)C)C(=O)NCC(=O)N[C@@H](CCCNC(=N)N)C(=O)N[C@@H](CC(C)C)C(=O)N[C@@H](CCCCC)C(=O)N2CCC[C@H]2C(=O)N[C@@H](C(C)C)C(=O)N[C@@H](CC(=O)O)C(=O)N[C@H](C(=O)N[C@@H](CO)C(N)=O)CSCC(=O)N[C@@H](Cc2ccc3ccccc3c2)C(=O)N[C@@H](Cc2ccc(O)cc2)C(=O)N[C@@H](CC(=O)O)C1=O [Ex 1314] ({CH2CO}-[2Nal]YD[NHexGly]YVGRL[Ahp(2)]PVDCS-NH2; thioether N-14)
cell-based binding high-content assay, mVISTA, the 16th table, read-out: HC CBA mVISTA IC50
  IC50: 1.4 nM

## CCCCCCN1CC(=O)N[C@@H](Cc2ccc(O)cc2)C(=O)N[C@@H](CCCC)C(=O)N[C@@H](CC(=O)O)C(=O)N[C@@H](CCCNC(=N)N)C(=O)N[C@@H](CC(C)C)C(=O)N[C@@H](CCCCC)C(=O)N2CCC[C@H]2C(=O)N[C@@H](C(C)C)C(=O)N[C@@H](CC(=O)O)C(=O)N[C@H](C(=O)NC(CC(=O)O)C(N)=O)CSCC(=O)N[C@@H](Cc2ccccc2)C(=O)N[C@@H](Cc2cccc(C)c2)C(=O)N[C@@H](CC(=O)O)C1=O (stereo partly shown) [compound 1327] ({CH2CO}-F[Phe(3-Me)]D[NHexGly]Y[Nle]DRL[Ahp(2)]PVDC[ξD]-NH2; thioether N-14)
read-out: HC CBA mVISTA IC50
  IC50: 13.9 nM

## CCCCCCN1CC(=O)N[C@@H](Cc2ccc(O)cc2)C(=O)N[C@@H](CC(C)C)C(=O)N[C@@H](CC(N)=O)C(=O)N[C@@H](CCCNC(=N)N)C(=O)N(C)[C@@H](CC(C)C)C(=O)N[C@@H](CCCCC)C(=O)N2CCC[C@H]2C(=O)N[C@@H](C(C)(C)C)C(=O)N[C@@H](CO)C(=O)N[C@H](C(=O)N[C@@H](CC(=O)NCCOCCOCC(=O)N[C@@H](CC(=O)O)C(=O)NCCOCCOCC(=O)NCCCCCCCCCCC(=O)O)C(=O)O)CSCC(=O)N[C@@H](Cc2ccc(C(=O)O)cc2)C(=O)N[C@@H](Cc2ccc(O)cc2)C(=O)N[C@@H](CC(=O)O)C1=O [compound 2052] ({CH2CO}-[Phe(4-COOH)]YD[NHexGly]YLNR[NMeL][Ahp(2)]P[Tle]SC[βAsp][AEEA]D[AEEA][Aun]-OH; thioether N-14)
[3]
  IC50: 31.7 nM

## CCCCCCN1CC(=O)N[C@@H](Cc2ccc(O)cc2)C(=O)N[C@@H](CC(C)C)C(=O)NCC(=O)N[C@@H](CCCNC(=N)N)C(=O)N[C@@H](CC(C)C)C(=O)N[C@@H](CCCCC)C(=O)N2CCC[C@H]2C(=O)N[C@@H](C(C)C)C(=O)N2CCC[C@H]2C(=O)N[C@H](C(=O)NCC(=O)O)CSCC(=O)N[C@@H](Cc2ccccc2)C(=O)N[C@@H](Cc2ccc(O)cc2)C(=O)N[C@@H](CC(=O)O)C1=O [compound 1124] ({CH2CO}-FYD[NHexGly]YLGRL[Ahp(2)]PVPCG-OH; thioether N-14)
read-out: HC CBA mVISTA IC50
  IC50: 32.3 nM
